Experimental data from patent US20260140098A1, “METHOD FOR TREATING PLASMA SAMPLE CONTAINING (7aS,2'S)-2-OXO-CLOPIDOGREL AND METHOD FOR DETERMINING THE SAME” (CHENGDU SHIBEIKANG BIOMEDICAL TECHNOLOGY CO., LTD., priority 2021, published 2026).
Read-outs that look alike come from different tables or passages of the source.

Test: Stability of (7aS,2′S)-2-oxo-clopidogrel in plasma, screening of TCEP dosage (Example 4)
Assay type: in vitro ADME
Settings: for recovery at 0 min, 0.1 ng/mL / recovery at 30 min, 0.1 ng/mL / recovery at 60 min, 0.1 ng/mL / recovery at 120 min, 0.1 ng/mL: theoretical 0.1 ng/mL; for recovery at 0 min, 0.1 ng/mL / recovery at 30 min, 0.1 ng/mL / recovery at 60 min, 0.1 ng/mL / recovery at 120 min, 0.1 ng/mL / recovery at 0 min, 12 ng/mL / recovery at 30 min, 12 ng/mL / recovery at 60 min, 12 ng/mL / recovery at 120 min, 12 ng/mL: read-out: Recovery rate; for recovery at 0 min, 12 ng/mL / recovery at 30 min, 12 ng/mL / recovery at 60 min, 12 ng/mL / recovery at 120 min, 12 ng/mL: theoretical 12.0 ng/mL
Experimental: S2. Plasma sample pre-treatment: taking 100 μl of the plasma, adding 5 μl of an internal standard working solution and 300 μl of acetonitrile respectively; after vortex mixing, centrifuging at 2-8° C. and 10,000 r/min for 10 min, and collecting the supernatant for later use.
S3. LC-MS/MS analysis: injecting 10 μl of the supernatant prepared from step S2 for determination, where the liquid chromatography conditions are: • the chromatographic column is Kinetex® 1.7 μm C18 100 A 100×2.1 mm; the column temperature is 40° C.; the mobile phase is acetonitrile-0.2% aqueous formic acid solution with a flow rate of 0.2 ml/min; and a gradient elution is carried out as specified in the table below:
ESI ion source, positive ion detection in multiple reaction monitoring mode (MRM); the quantitatively analyzed ions (7aS,2′S)-2-oxo-clopidogrel: m/z 338.100→155.000, IS: m/z 341.100→158.000, a capillary voltage of 4.0 KV, a cone voltage of 25 V, a desolvation gas temperature of 400° C. and a source temperature of 150° C. The optimal collision energy is 20 eV.
Blank plasma was taken and TCEP was added to prepare plasma containing TCEP at different concentrations (10, 50, 100 mg/ml). Subsequently, standard series solution of (7aS,2′S)-2-oxo-clopidogrel was added separately to prepare quality control samples with two concentrations of (7aS,2′S)-2-oxo-clopidogrel (0.1 and 12.0 ng/ml), 3 samples for each concentration. They were placed at room temperature and on ice, respectively, and the plasma samples at different placing time points were taken to examine the stability by pre-treating the plasma samples according to the method of S2 of Example 1, followed by LC/MS/MS determination according to the method of S3.

[1] = plasma containing TCEP 10 mg/ml, TCEP 10 mg/ml, on ice
[2] = plasma containing TCEP 10 mg/ml, TCEP 10 mg/ml, room temperature
[3] = plasma without TCEP, No TCEP, on ice
[4] = plasma without TCEP, No TCEP, room temperature
[5] = plasma, TCEP 50 mg/ml, room temperature
[6] = plasma, TCEP 100 mg/ml, room temperature

recovery at 0 min, 0.1 ng/mL [1]: 96.5% | recovery at 30 min, 0.1 ng/mL [1]: 94.2% | recovery at 60 min, 0.1 ng/mL [1]: 86.3% | recovery at 120 min, 0.1 ng/mL [1]: 78.2% | recovery at 0 min, 0.1 ng/mL [2]: 96.5% | recovery at 30 min, 0.1 ng/mL [2]: 95.2% | recovery at 60 min, 0.1 ng/mL [2]: 83.3% | recovery at 120 min, 0.1 ng/mL [2]: 72.9% | recovery at 0 min, 12 ng/mL [1]: 102% | recovery at 30 min, 12 ng/mL [1]: 99.2% | recovery at 60 min, 12 ng/mL [1]: 88.8% | recovery at 120 min, 12 ng/mL [1]: 82.7% | recovery at 0 min, 12 ng/mL [2]: 102% | recovery at 30 min, 12 ng/mL [2]: 97.5% | recovery at 60 min, 12 ng/mL [2]: 86.7% | recovery at 120 min, 12 ng/mL [2]: 78.8% | recovery at 0 min, 0.1 ng/mL (plasma containing TCEP 50 mg/ml, TCEP 50 mg/ml, room temperature): 96.5% | Stability in plasma (in words) (plasma samples without TCEP): degraded fast | recovery at 0 min, 0.1 ng/mL [3]: 96.5% | recovery at 30 min, 0.1 ng/mL [3]: 84.2% | recovery at 60 min, 0.1 ng/mL [3]: 76.3% | recovery at 120 min, 0.1 ng/mL [3]: 62.2% | recovery at 30 min, 0.1 ng/mL [4]: 78.2% | recovery at 60 min, 0.1 ng/mL [4]: 63.3% | recovery at 120 min, 0.1 ng/mL [4]: 52.9% | recovery at 0 min, 12 ng/mL [3]: 102% | recovery at 30 min, 12 ng/mL [3]: 85.8% | recovery at 60 min, 12 ng/mL [3]: 80.4% | recovery at 120 min, 12 ng/mL [3]: 60.3% | recovery at 0 min, 12 ng/mL [4]: 102% | recovery at 30 min, 12 ng/mL [4]: 78.8% | recovery at 60 min, 12 ng/mL [4]: 69.8% | recovery at 120 min, 12 ng/mL [4]: 54.8% | recovery at 0 min, 0.1 ng/mL (plasma, No TCEP, room temperature): 96.5% | recovery at 0 min, 0.1 ng/mL (plasma, TCEP 50 mg/ml, on ice): 96.5% | recovery at 30 min, 0.1 ng/mL (plasma, TCEP 50 mg/ml, on ice): 95.6% | recovery at 60 min, 0.1 ng/mL (plasma, TCEP 50 mg/ml, on ice): 93.2% | recovery at 120 min, 0.1 ng/mL (plasma, TCEP 50 mg/ml, on ice): 91.1% | recovery at 30 min, 0.1 ng/mL [5]: 93.5% | recovery at 60 min, 0.1 ng/mL [5]: 91.4% | recovery at 120 min, 0.1 ng/mL [5]: 89.5% | recovery at 0 min, 12 ng/mL (plasma, TCEP 50 mg/ml, on ice): 102% | recovery at 30 min, 12 ng/mL (plasma, TCEP 50 mg/ml, on ice): 102% | recovery at 60 min, 12 ng/mL (plasma, TCEP 50 mg/ml, on ice): 99.2% | recovery at 120 min, 12 ng/mL (plasma, TCEP 50 mg/ml, on ice): 95% | recovery at 0 min, 12 ng/mL [5]: 102% | recovery at 30 min, 12 ng/mL [5]: 101% | recovery at 60 min, 12 ng/mL [5]: 99.2% | recovery at 120 min, 12 ng/mL [5]: 88.3% | recovery at 0 min, 0.1 ng/mL (plasma, TCEP 100 mg/ml, on ice): 96.5% | recovery at 30 min, 0.1 ng/mL (plasma, TCEP 100 mg/ml, on ice): 95.8% | recovery at 60 min, 0.1 ng/mL (plasma, TCEP 100 mg/ml, on ice): 94.2% | recovery at 120 min, 0.1 ng/mL (plasma, TCEP 100 mg/ml, on ice): 95.1% | recovery at 0 min, 0.1 ng/mL [6]: 96.5% | recovery at 30 min, 0.1 ng/mL [6]: 95.5% | recovery at 60 min, 0.1 ng/mL [6]: 93.4% | recovery at 120 min, 0.1 ng/mL [6]: 91.5% | recovery at 0 min, 12 ng/mL (plasma, TCEP 100 mg/ml, on ice): 102% | recovery at 30 min, 12 ng/mL (plasma, TCEP 100 mg/ml, on ice): 103% | recovery at 60 min, 12 ng/mL (plasma, TCEP 100 mg/ml, on ice): 101% | recovery at 120 min, 12 ng/mL (plasma, TCEP 100 mg/ml, on ice): 98.3% | recovery at 0 min, 12 ng/mL [6]: 102% | recovery at 30 min, 12 ng/mL [6]: 102% | recovery at 60 min, 12 ng/mL [6]: 99.2% | recovery at 120 min, 12 ng/mL [6]: 96.7%
SMILES: COC(=O)[C@H](c1ccccc1Cl)N1CC[C@@H]2SC(=O)C=C2C1 [(7aS,2′S)-2-oxo-clopidogrel, methyl(S)-2-(2-chlorophenyl)-2-((S)-2-oxo-2,6,7,7a-tetrahydrothieno[3,2-c]pyridin-5 (4H)-yl)acetate]
Stability in plasma (in words) (on ice compared with room temperature): more stable when placed on ice than at room temperature
